From US10017542B2, “Antimicrobial peptides and methods of use thereof” (priority 2015, dated 2018)
Where a SMILES comes first, the peptide text is derived from it. Where no end group is shown, it is not given here. [ ]: non-standard residue; d: D form. Orn = NCCC[C@H](N)C(=O)O

Assays:
[1] = tested on: Clostridium difficile; test: Killing of antibiotic resistant bacteria (FIG. 2); assay type: cell-based; details: 1 hour time point after addition, single cell format
[2] = tested on: Pseudomonas aeruginosa; test: Killing of antibiotic resistant bacteria (FIG. 2); details: 1 hour time point after addition, single cell format
[3] = tested on: S. aureus MRSA (G+) biofilm
Method: (§1) The Minimum Biofilm Eradication Concentration (MBEC) Assay was used. MBEC values provide estimates on the concentration of an antimicrobial product required to kill biofilm bacteria. The Calgary Biofilm Device (CBD) plate was used to effect biofilm formation on a lid containing 96 pegs. Bacterial cultures were grown and diluted in Tryptic Soy Broth (TSB) to approximately 1×10^7 CFU/mL before inoculation of the CBD plate, which was then incubated for 24 hr at 35° C. on a shaker at 125 rpm.
(§2) The peg lid containing biofilm was first rinsed in PBS to remove planktonic cells prior to treatment with 2-fold serial dilutions of test articles and control overnight at 35° C. The peg lid was rinsed in PBS twice before sonication in fresh media to disrupt biofilm adhered to the pegs. The plate was then incubated overnight to evaluate growth. Bacterial quantification was performed by measuring absorbance at 650 nm (A650). By definition, A650 reading of less than 0.1 indicates biofilm eradication.

[4] = tested on: S. epidermis (G+) biofilm
Method: as §1, §2

[5] = tested on: A. baumanii (G−) biofilm
Method: as §1, §2

[6] = tested on: P. aeruginosa (G−) biofilm
Method: as §1, §2

[7] = tested on: B. thailandensis; details: concentration required to kill 50% of B. thailandensis; 10 mM phosphate buffer, 3 h, 37° C.
[8] = tested on: Staphylococcus aureus; test: Killing of antibiotic resistant bacteria (FIG. 2); details: 1 hour time point after addition, single cell format

Compound	killing of C. difficile [1]	killing of P. aeruginosa [2]	Average MBEC [3] [µM]	Average MBEC [4] [µM]	Average MBEC [5] [µM]	Average MBEC [6] [µM]	EC50 [7] [µM]	killing of S. aureus [8]
CN[C@H](CC(C)C)C(=O)N[C@H]1C(=O)N[C@@H](CC(N)=O)C(=O)N[C@H]2C(=O)N[C@H]3C(=O)N[C@H](C(=O)N[C@H](C(=O)O)c4cc(O)cc(O)c4-c4cc3ccc4O)[C@H](O)c3ccc(c(Cl)c3)Oc3cc2cc(c3O[C@@H]2O[C@H](CO)[C@@H](O)[C@H](O)[C@H]2O[C@H]2C[C@](C)(N)[C@H](O)[C@H](C)O2)Oc2ccc(cc2Cl)[C@H]1O [vancomycin, reference compound]	not effective	not effective						
C[C@H](NC(=O)[C@H](Cc1ccccc1)NC(=O)[C@H](C)NC(=O)[C@@H](N)Cc1ccccc1)C(=O)N[C@@H](Cc1ccccc1)C(=O)N[C@@H](CCCN)C(=O)N[C@@H](C)C(=O)N[C@@H](Cc1ccccc1)C(=O)N[C@@H](CCCN)C(=O)N[C@@H](CCCN)C(=O)N[C@@H](C)C(=O)N[C@@H](Cc1ccccc1)C(=O)N[C@@H](CCCN)C(=O)N[C@@H](CCCN)C(=O)N[C@@H](Cc1ccccc1)C(=O)N[C@@H](CCCN)C(=O)N[C@@H](CCCN)C(=O)N[C@@H](C)C(=O)N[C@@H](Cc1ccccc1)C(=O)N[C@@H](CCCN)C(=O)N[C@@H](CCCN)C(=O)N[C@@H](C)C(=O)N[C@@H](Cc1ccccc1)C(=O)O [RP443, FAFAFOAFOOAFOOFOOAFOOAF] (H-FAFAF[Orn]AF[Orn][Orn]AF[Orn][Orn]F[Orn][Orn]AF[Orn][Orn]AF-OH; N-terminus and C-terminus assumed)			7.36	3.68	3.68	57.62	55.6	
FAFAFAFKKAFKKFKKAFKKAF [RP442]	effective in killing	effective in killing	14.68	14.68	1.87	234.28	0.95	effectively killed
C[C@H](NC(=O)[C@H](Cc1ccccc1)NC(=O)[C@H](C)NC(=O)[C@H](Cc1ccccc1)NC(=O)[C@H](CCCN)NC(=O)[C@H](C)NC(=O)[C@H](Cc1ccccc1)NC(=O)[C@H](CCCN)NC(=O)[C@H](CCCN)NC(=O)[C@H](C)NC(=O)[C@H](Cc1ccccc1)NC(=O)[C@H](CCCN)NC(=O)[C@H](CCCN)NC(=O)[C@H](Cc1ccccc1)NC(=O)[C@H](CCCN)NC(=O)[C@H](CCCN)NC(=O)[C@H](C)NC(=O)[C@H](Cc1ccccc1)NC(=O)[C@H](CCCN)NC(=O)[C@H](CCCN)NC(=O)[C@H](C)NC(=O)[C@@H](N)Cc1ccccc1)C(=O)N[C@@H](Cc1ccccc1)C(=O)O [RP444, FAOOFAOOFOOFAOOFAOFAFAF] (H-FA[Orn][Orn]FA[Orn][Orn]F[Orn][Orn]FA[Orn][Orn]FA[Orn]FAFAF-OH; N-terminus and C-terminus assumed)			14.41	14.41	3.68	57.62	14.8	
CPGFAKKFAKKFKKFAKKFAKFAFAF [RP438]			12.89	12.89	6.45	51.43	11.2	
CC[C@H](C)[C@H](NC(=O)[C@H](CS)NC(=O)[C@H](Cc1ccccc1)NC(=O)[C@H](CCCNC(=N)N)NC(=O)CNC(=O)[C@H](CC(C)C)NC(=O)[C@H](CS)NC(=O)[C@H](CC(C)C)NC(=O)[C@H](CCCCN)NC(=O)[C@H](C)NC(=O)[C@H](CCCNC(=N)N)NC(=O)[C@@H](NC(=O)[C@@H](N)CCCCN)[C@@H](C)CC)C(=O)N[C@@H](CCCNC(=N)N)C(=O)N[C@@H](C)C(=O)N[C@@H](CCCCN)C(=O)N[C@@H](CC(C)C)C(=O)N[C@@H](CCCNC(=N)N)C(=O)O [RP439, KIRAKLCLGRFCIRAKLR] (H-KIRAKLCLGRFCIRAKLR-OH)	effective in killing	effective in killing						effectively killed
